Experimental data from article PMC10287555, “Camonsertib in DNA damage response-deficient advanced solid tumors: phase 1 trial results” (Nature Medicine, 2023).

Assay: Treatment-emergent adverse events (TEAEs), TRESR
Format: in vivo, human
Method: Tolerability and safety of camonsertib was evaluated by assessment of AEs, TEAEs, serious adverse events (SAEs), DLTs, concomitant medications and procedures, physical examinations, vital sign measurements, clinical safety laboratory evaluations (hematology, chemistry and urinalysis), ECOG performance status scores and electrocardiograms.
All safety and efficacy endpoints were summarized with descriptive statistics. Safety data were summarized using the safety population, which consisted of all patients who received at least one dose of RP-3500. The DLT rate was based on the DLT-evaluable population, which included those patients in dose-escalation cohorts (M1a and M1b only) receiving ≥80% of planned doses of camonsertib, who completed all required safety evaluations and were observed through the end of cycle 1 or patients who experienced a DLT. Due to the different number of dose levels expected and the exploratory nature of the phase 1 study, anti-tumor activity parameters were primarily based on patients who received ≥1 dose of RP-3500 and had ≥1 post-baseline tumor assessment by RECIST 1.1 and/or GCIG CA-125 or PCWG3 PSA criteria, with an initial dose level of >100 mg d^−1 (dose level predicted to achieve efficacious exposure), as defined in the statistical analysis plan. Additional subgroups based on tumor types or genotypes of interest were based on this efficacy analysis set. […] Patients were, therefore, enrolled in the study and endpoints assessed regardless of sex, gender and race. No formal statistical tests were performed in this study. However, nominal P values (two-sided) were provided for the hypothesis-generating purpose of selected exploratory endpoints, without adjusting for multiplicity. A log-rank test was used in between-group comparisons for the time-to-event endpoints (PFS and DOT), and Fisher’s exact test was used in between-group comparisons for the binary endpoints (CBR, MR, etc.).

[1] = 3/4 schedule (n = 95), all grades
[2] = 3/4 schedule (n = 95), grade 3+
[3] = 5/2 schedule (n = 25), all grades
[4] = 5/2 schedule (n = 25), grade 3+

C[C@@H]1COCCN1c1cc([C@]2(O)C[C@H]3CC[C@@H](C2)O3)c2cnn(-c3cc[nH]n3)c2n1 [camonsertib]
Any TEAE [1]: 92 (96.8) n (%)
TEAE: Abdominal pain [1]: 15 (15.8) n (%)
TEAE: Anemia [1]: 63 (66.3) n (%)
TEAE: Blood creatinine increased [1]: 8 (8.4) n (%)
TEAE: Constipation [1]: 13 (13.7) n (%)
TEAE: Decreased appetite [1]: 21 (22.1) n (%)
TEAE: Diarrhea [1]: 20 (21.1) n (%)
TEAE: Dizziness [1]: 11 (11.6) n (%)
TEAE: Dyspnea [1]: 18 (18.9) n (%)
TEAE: Fatigue [1]: 34 (35.8) n (%)
TEAE: Nausea [1]: 31 (32.6) n (%)
TEAE: Neutrophil count decreased/neutropenia [1]: 27 (28.4) n (%)
TEAE: Platelet count decreased/ thrombocytopenia [1]: 25 (26.3) n (%)
TEAE: Vomiting [1]: 16 (16.8) n (%)
TEAE: White blood cell count decreased [1]: 11 (11.6) n (%)
Any TEAE [2]: 51 (53.7) n (%)
TEAE: Abdominal pain [2]: 0 n (%)
TEAE: Anemia [2]: 28 (29.5) n (%)
TEAE: Blood creatinine increased [2]: 0 n (%)
TEAE: Constipation [2]: 0 n (%)
TEAE: Decreased appetite [2]: 0 n (%)
TEAE: Diarrhea [2]: 0 n (%)
TEAE: Dizziness [2]: 0 n (%)
TEAE: Dyspnea [2]: 2 (2.1) n (%)
TEAE: Fatigue [2]: 2 (2.1) n (%)
TEAE: Nausea [2]: 3 (3.2) n (%)
TEAE: Neutrophil count decreased/neutropenia [2]: 13 (13.7) n (%)
TEAE: Platelet count decreased/ thrombocytopenia [2]: 8 (8.4) n (%)
TEAE: Vomiting [2]: 3 (3.2) n (%)
TEAE: White blood cell count decreased [2]: 4 (4.2) n (%)
Any TEAE [3]: 25 (100.0) n (%)
TEAE: Abdominal pain [3]: 3 (12.0) n (%)
TEAE: Anemia [3]: 21 (84.0) n (%)
TEAE: Blood creatinine increased [3]: 4 (16.0) n (%)
TEAE: Constipation [3]: 5 (20.0) n (%)
TEAE: Decreased appetite [3]: 6 (24.0) n (%)
TEAE: Diarrhea [3]: 3 (12.0) n (%)
TEAE: Dizziness [3]: 2 (8.0) n (%)
TEAE: Dyspnea [3]: 8 (32.0) n (%)
TEAE: Fatigue [3]: 10 (40.0) n (%)
TEAE: Nausea [3]: 8 (32.0) n (%)
TEAE: Neutrophil count decreased/neutropenia [3]: 6 (24.0) n (%)
TEAE: Platelet count decreased/ thrombocytopenia [3]: 8 (32.0) n (%)
TEAE: Vomiting [3]: 4 (16.0) n (%)
TEAE: White blood cell count decreased [3]: 3 (12.0) n (%)
Any TEAE [4]: 19 (76.0) n (%)
TEAE: Abdominal pain [4]: 0 n (%)
TEAE: Anemia [4]: 14 (56.0) n (%)
TEAE: Blood creatinine increased [4]: 0 n (%)
TEAE: Constipation [4]: 0 n (%)
TEAE: Decreased appetite [4]: 0 n (%)
TEAE: Diarrhea [4]: 0 n (%)
TEAE: Dizziness [4]: 0 n (%)
TEAE: Dyspnea [4]: 0 n (%)
TEAE: Fatigue [4]: 1 (4.0) n (%)
TEAE: Nausea [4]: 0 n (%)
TEAE: Neutrophil count decreased/neutropenia [4]: 4 (16.0) n (%)
TEAE: Platelet count decreased/ thrombocytopenia [4]: 3 (12.0) n (%)
TEAE: Vomiting [4]: 0 n (%)
TEAE: White blood cell count decreased [4]: 0 n (%)
